Experimental data published in US12440475B2, “Hodgkin lymphoma therapy” (priority 2016, dated 2025).

Experiments:
[1] = Weight of xenografted NSG mice after EDO-S101; format: in vivo
Procedure: Two independent experiments were performed to investigate the dose-effect of EDO-S101 in NSG mice eight weeks after xenografting with L428 cells as in Example 8. The aim of the protocol shown in FIG. 8B was to evaluate the effect of sequential treatment with a moderate dose of 60 mg/kg given at an interval of three weeks.
This weight loss was also observed in mice treated with the vehicle. In contrast, the weight of the control mice receiving only freshly prepared phosphate buffered saline (PBS) buffered to 7.3-7.4 increased up to 11 weeks and then started to decrease.
The toxicity of the dose of 80 mg/kg compared to 60 mg/kg was investigated, as compared to the control groups vehicle and PBS.

[2] = test system: KMH2; assay: Mitotic index and chromosomal aberrations, KMH2; format: cell-based, human
Procedure: (§1) The mitotic index and chromosomal aberrations for each of the cell lines were evaluated after treatment with either 20 μmol or 10 μmol EDO-S101 in DMSO. Each cell line was cultured at 37° C. in the presence of RPMI 1640 supplemented with 10% FCS and antibiotics. Colcemid (0.1 ug/ml) was added 2 h before harvesting and slides with chromosomes in metaphase were prepared following the standard methanol/acetic acid (3/1, v/v) procedure. The slides were stored at −20° C. until use.
(§2) FISH was performed using a combination of standard procedures from the recommended protocols for chromosome analysis, following telomere and centromere staining, using PNA probes. In all, 100 metaphases were scored per in vitro dose exposure.
(§3) The mitotic index was determined by measurement of the sum of all cells in prophase, metaphase, anaphase and telophase divided by the total number of cells.

[3] = test system: Hodgkin lymphoma cell lines; assay: Proliferation and IC50 determination (MTS assay; manual counting using Trypan blue); format: cell-based; settings: Homo sapiens, 48 h, range over all cell lines
Procedure: Nine Hodgkin lymphoma cell lines were cultured at 37° C. in 24-well plates at a concentration of 0.3×10^6 cells/ml in the presence of EDO-S101 at concentrations of 0, 5, 10, 15 and 20 μmol in DMSO for 24 hours and 48 hours and the proliferation of the cells was determined using a non-radioactive cell proliferation MTS assay with CellTiter 96® Aqueous One solution reagent obtained from Promega® (this is a colorimetric method for determining the number of viable cells in a proliferation comprising a tetrazolium compound [3-(4,5-dimethylthiazol-2-yl)-5-(3-carboxymethoxyphenyl)-2-(4-sulfophenyl)-2H-tetrazolium, inner salt; MIS). The proliferation was plotted against concentration of EDO-S101 for treatment after both 24 and 48 hours.

[4] = test system: L540; assay: Mitotic index, L540; format: cell-based, human
Procedure: as §1, §2, §3

[5] = test system: L428 cells; assay: Cytogenetic analysis of cells from xenografted mice; format: in vivo, NSG mice; settings: different doses, including a single dose of 60 mg/kg
Procedure: Separated cells were cultured in the presence of RPMI 1640 supplemented with 10% Fetal Calf Serum (FCS) and antibiotics, colcemid (0.1 μg/ml) added 2 h before harvesting, and the slides with metaphase chromosomes prepared following the standard methanol/acetic acid (3/1, v/v) procedure.
Four new cell lines were generated after one month of in vitro culture following 24 hour of exposure to EDO-S101. Fluorescence in situ hybridysation (FISH) was performed using a combination of standard procedures from the recommended protocols for chromosomal analysis, following telomere and centromere staining, using peptide nucleic acid (PNA) probes in order to detect unstable chromosomal aberrations and to delimit the chromosome territory. M-FISH was performed using multi-FISH probes (Metasystems GmbH, Altlussheim, Germany), according to the manufacturer's recommendations on the same slide. Images of hybridized metaphases were captured using a charge coupled device camera (Zeiss, Thornwood, NY) coupled to a Zeiss Axioplan microscope and processed using ISIS software (Metasystems).
The ocular tumour masses were harvested, as well as cells which infiltrated the liver. Five new cell lines were established from ocular tumours and the livers of both control mice (PBS or vehicle). […]

[6] = test system: R100; assay: ATM/ATR transcripts, R100; format: cell-based, human; settings: bendamustine resistant R100; EDO-S101 alone
[7] = test system: L428s; assay: Clonogenic survival in methylcellulose, L428s; format: cell-based, human; settings: very low doses (0.1 and 0.5 μmol)
Procedure: In all examples, the human Hodgkin lymphoma-derived cell lines L428, L428-c, KMH2, L591, L540, L1236, HDLM2 and SUP-HD were obtained from Dr Steffen Junker (Aarhus University Denmark). All cell lines were cultured in Gibco RPMI 1640 medium supplemented with Glutamax, 10% FBS and antibiotics at 37° C. […] The immunophenotype, P53 status and MSI characterization of the Hodgkin lymphoma cell lines was determined using anti-CD30, CD15, CD20 and CD14 antibodies.
This test was performed on four Hodgkin lymphoma cell lines (L428, L428s, KMH2 and L540). Each was cultured with EDO-S101 at doses of 0, 0.1, 0.5, 1, 10 and 20 μmol in DMSO. The cell lines were cultured in methylcellulose (Stem cell Technologies) at a concentration of 10^5/ml at 37° C. and 5% CO2. The surviving fraction was determined by measuring the viability of colonies generated before and after exposure. Only colonies with more than 50 cells were counted. Each data point represents the average and SD from three independent experiments performed in triplicate.

## Cn1c(CCCCCCC(=O)NO)nc2cc(N(CCCl)CCCl)ccc21 [EDO-S101]
[1]; single dose 60 mg/kg or 80 mg/kg
  weight loss, 60 mg/kg versus 80 mg/kg: no significant difference
[1]; treated versus untreated mice
  weight of the mice or the different organs: No significant difference
[1]; two doses of 60 mg/kg three weeks apart
  weight of mice: weight loss following each administration which was regained after several weeks
[2]
  mitotic index: very low mitotic index
[2]; telomere and centromere staining
  chromosomal aberrations in metaphase: numerous chromosomal aberrations
[3]
  IC50: 1.6 to 6.3 µM
[4]
  mitotic index: very low mitotic index
[5]
  metaphases and cell lines from cells of treated mice: not possible to obtain either metaphases from direct culture or establish cell lines
[6]
  ATM/ATR transcripts: correct the constitutive ATM/ATR unbalance by upregulating ATR and downregulating ATM transcripts
[7]
  clones observed (clonogenic survival): only macrophagic clones being observed
